Test results as given in US9624200B2, “Therapeutic piperazines” (DART NEUROSCIENCE (CAYMAN) LTD., priority 2006, dated 2017).

Tested on: PDE4 from human U-937 cells
Experiment: PDE4 Inhibition Assay
Assay type: biochemical
Conditions: 1 μM cAMP, [3H]-cAMP, read-out: Potency Class (Inhibitory Concentration) in the PDE4 assay
Summary of the method: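 U-937-derived PDE4 (2 μg/ml) was preincubated with compound in Tris-HCl pH 7.5 for 15 min at 25° C. It then reacted 20 min with cAMP plus [^3H]-cAMP. [^3H]-AMP was converted to [^3H]-adenosine by nucleotidase, resin-separated and counted; IC50 came from percent inhibition.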

SMILES | IC50
COc1ccc(N2CCN(C(=O)Cc3sc(C)nc3C)[C@@H](Cc3ccccc3)C2)cc1OC1CCCC1 [Compound 298, (S)-1-(2-benzyl-4-(3-(cyclopentyloxy)-4-methoxyphenyl)piperazin-1-yl)-2-(2,4-dimethylthiazol-5-yl)ethanone] | > 1000 nM
COc1ccc(N2CCN(C(=O)Cc3n[nH]c(=O)[nH]3)[C@@H](Cc3ccccc3)C2)cc1OC1CCCC1 [Compound 293, (S)-3-(2-(2-benzyl-4-(3-(cyclopentyloxy)-4-methoxyphenyl)piperazin-1-yl)-2-oxoethyl)-1H-1,2,4-triazol-5(4H)-one] | 200 to 1000 nM
CCc1nn(C(C)C)c2cc(N3CCN(C(C)=O)[C@@H](Cc4ccccc4)C3)ccc12 [Compound 379, (S)-1-(2-benzyl-4-(3-ethyl-1-isopropyl-1H-indazol-6-yl)piperazin-1-yl)ethanone] | > 1000 nM
COc1ccc(N2CCN(C(=O)[C@@H]3CCC(=O)O3)[C@@H](Cc3ccccc3)C2)cc1OC1CCCC1 [Compound 295, (S)-5-((S)-2-benzyl-4-(3-(cyclopentyloxy)-4-methoxyphenyl)piperazine-1-carbonyl)dihydrofuran-2 (3H)-one] | > 1000 nM
COc1ccc(N2CCN(C(=O)c3ccc(CO)cc3)[C@@H](Cc3ccccc3)C2)cc1OC1CCCC1 [Compound 360, (S)-(2-benzyl-4-(3-(cyclopentyloxy)-4-methoxyphenyl)piperazin-1-yl)(4-(hydroxymethyl)phenyl)methanone] | > 1000 nM
CCc1nn(C2CCC2)c2cc(N3CCN(C(=O)CN)[C@@H](Cc4ccccc4)C3)ccc12 [Compound 351, (S)-2-amino-1-(2-benzyl-4-(1-cyclobutyl-3-ethyl-1H-indazol-6-yl)piperazin-1-yl)ethanone] | > 1000 nM
COc1ccc(N2CCN(CCC(N)=O)[C@@H](Cc3ccccc3)C2)cc1OC(C)C [Compound 272, (S)-3-(2-benzyl-4-(3-isopropoxy-4-methoxyphenyl)piperazin-1-yl)propanamide] | 200 to 1000 nM
COc1ccc(N2CCN(C(=O)Cc3cccnc3)[C@@H](Cc3ccccc3)C2)cc1OC1CCCC1 [Compound 385, (S)-1-(2-benzyl-4-(3-(cyclopentyloxy)-4-methoxyphenyl)piperazin-1-yl)-2-(pyridin-3-yl)ethanone] | < 200 nM
COc1ccc(N2CCN(C(=O)Cc3ccccn3)[C@@H](Cc3ccccc3)C2)cc1OC(C)C [Compound 341, (S)-1-(2-benzyl-4-(3-isopropoxy-4-methoxyphenyl)piperazin-1-yl)-2-(pyridin-2-yl)ethanone] | 200 to 1000 nM
COc1ccc(N2CCN(C(=O)Cc3ccccn3)[C@@H](Cc3ccccc3)C2)cc1OC1CCCC1 [Compound 384, (S)-1-(2-benzyl-4-(3-(cyclopentyloxy)-4-methoxyphenyl)piperazin-1-yl)-2-(pyridin-2-yl)ethanone] | < 200 nM
COc1ccc(N2CCN(C(=O)Cn3ccnn3)[C@@H](Cc3ccccc3)C2)cc1OC1CCCC1 [Compound 334, (S)-1-(2-benzyl-4-(3-(cyclopentyloxy)-4-methoxyphenyl)piperazin-1-yl)-2-(1H-1,2,3-triazol-1-yl)ethanone] | > 1000 nM
COc1ccc(N2CCN(CC(N)=O)[C@@H](Cc3ccccc3)C2)cc1OC1CCC1 [Compound 268, (S)-2-(2-benzyl-4-(3-cyclobutoxy-4-methoxyphenyl)piperazin-1-yl)acetamide] | < 200 nM
COc1ccc(N2CCN(C(=O)Cc3n[nH]c([N+](=O)[O-])n3)[C@@H](Cc3ccccc3)C2)cc1OC(C)C [Compound 336, (S)-1-(2-benzyl-4-(3-isopropoxy-4-methoxyphenyl)piperazin-1-yl)-2-(5-nitro-1H-1,2,4-triazol-3-yl)ethanone] | > 1000 nM
COc1ccc(N2CCN(CCc3cnc[nH]3)[C@@H](Cc3ccccc3)C2)cc1OC1CCCC1 [Compound 242, (S)-1-(2-(1H-imidazol-5-yl)ethyl)-2-benzyl-4-(3-(cyclopentyloxy)-4-methoxyphenyl)piperazine] | > 1000 nM
CC(C)C[C@H]1CN(c2ccc(OC(F)F)c(OC3CCCC3)c2)CCN1C(=O)Cc1c[nH]cn1 [Compound 366, (S)-1-(4-(3-(cyclopentyloxy)-4-(difluoromethoxy)phenyl)-2-isobutylpiperazin-1-yl)-2-(1H-imidazol-4-yl)ethanone] | 200 to 1000 nM
COc1ccc(N2CCN(C(=O)Cc3cn(C)cn3)[C@@H](CC(C)C)C2)cc1OC1CCC1 [Compound 369, (S)-1-(4-(3-cyclobutoxy-4-methoxyphenyl)-2-isobutylpiperazin-1-yl)-2-(1-methyl-1H-imidazol-4-yl)ethanone] | 200 to 1000 nM
COc1ccc(N2CCN(C(=O)c3cc[nH]n3)[C@@H](Cc3ccccc3)C2)cc1OC1CCCC1 [Compound 304, (S)-(2-benzyl-4-(3-(cyclopentyloxy)-4-methoxyphenyl)piperazin-1-yl)(1H-pyrazol-3-yl)methanone] | > 1000 nM
COc1ccc(N2CCN(C(=O)CN3CC[C@H](O)C3)[C@@H](Cc3ccccc3)C2)cc1OC1CCCC1 [Compound 319, 1-((S)-2-benzyl-4-(3-(cyclopentyloxy)-4-methoxyphenyl)piperazin-1-yl)-2-((S)-3-hydroxypyrrolidin-1-yl)ethanone] | 200 to 1000 nM
COc1ccc(N2CCN(C(=O)C3CNC(=O)C3)[C@@H](Cc3ccccc3)C2)cc1OC1CCCC1 (stereo partly drawn) [Compound 299, 4-((S)-2-benzyl-4-(3-(cyclopentyloxy)-4-methoxyphenyl)piperazine-1-carbonyl)pyrrolidin-2-one] | 200 to 1000 nM
COc1ccc(N2CCN(C(=O)c3ccc(O)c(O)c3)[C@@H](Cc3ccccc3)C2)cc1OC1CCCC1 [Compound 286, (S)-(2-benzyl-4-(3-(cyclopentyloxy)-4-methoxyphenyl)piperazin-1-yl)(3,4-dihydroxyphenyl)methanone] | > 1000 nM
COc1ccc(N2CCN(C(=O)CCN)[C@@H](Cc3ccccc3)C2)cc1OC1CCC1 [Compound 274, (S)-3-amino-1-(2-benzyl-4-(3-cyclobutoxy-4-methoxyphenyl)piperazin-1-yl)propan-1-one] | > 1000 nM
COc1ccc(N2CCN(C(C)=O)[C@@H](Cc3cccc(C)c3)C2)cc1OC1CCCC1 [Compound 248, (S)-1-(4-(3-(cyclopentyloxy)-4-methoxyphenyl)-2-(3-methylbenzyl)piperazin-1-yl)ethanone] | < 200 nM
COc1ccc(N2CCN(C(=O)Cc3n[nH]c([N+](=O)[O-])n3)[C@@H](Cc3ccccc3)C2)cc1OC1CCC1 [Compound 338, (S)-1-(2-benzyl-4-(3-cyclobutoxy-4-methoxyphenyl)piperazin-1-yl)-2-(5-nitro-1H-1,2,4-triazol-3-yl)ethanone] | 200 to 1000 nM
COc1ccc(N2CCN(C(=O)Cc3ncccn3)[C@@H](Cc3ccccc3)C2)cc1OC1CCCC1 [Compound 388, (S)-1-(2-benzyl-4-(3-(cyclopentyloxy)-4-methoxyphenyl)piperazin-1-yl)-2-(pyrimidin-2-yl)ethanone] | < 200 nM
COc1ccc(N2CCN(C(C)=O)[C@@H](CN3CCCC3)C2)cc1OC1CCCC1 [Compound 249, (S)-1-(4-(3-(cyclopentyloxy)-4-methoxyphenyl)-2-(pyrrolidin-1-ylmethyl)piperazin-1-yl)ethanone] | > 1000 nM
COc1ccc(N2CCN(C(C)=O)[C@@H](CN3CCc4ccccc4C3)C2)cc1OC1CCCC1 [Compound 253, (S)-1-(4-(3-(cyclopentyloxy)-4-methoxyphenyl)-2-((3,4-dihydroisoquinolin-2(1H)-yl)methyl)piperazin-1-yl)ethanone] | < 200 nM
